# Test results as given in article PMC10461224, “Development of an Affinity-Based Probe to Profile Endogenous Human Adenosine A3 Receptor Expression” (Journal of Medicinal Chemistry, 2023).
# Tests used:
# [1] = target: T1, hA3AR (Homo sapiens, UniProt P0DMS8); assay: SDS-PAGE labeling on live CHO cells; format: cell-based; settings: 50 nM, 1 h, 37 °C; signal reduced by PSB-11
# T1 construct: expressed in transfected cells; host or cells: CHO cells (CHOhA3AR), gift of Prof; K.N. Klotz, University of Würzburg; used as membrane fractions or live cells
# T1 sequence (P0DMS8 1-318): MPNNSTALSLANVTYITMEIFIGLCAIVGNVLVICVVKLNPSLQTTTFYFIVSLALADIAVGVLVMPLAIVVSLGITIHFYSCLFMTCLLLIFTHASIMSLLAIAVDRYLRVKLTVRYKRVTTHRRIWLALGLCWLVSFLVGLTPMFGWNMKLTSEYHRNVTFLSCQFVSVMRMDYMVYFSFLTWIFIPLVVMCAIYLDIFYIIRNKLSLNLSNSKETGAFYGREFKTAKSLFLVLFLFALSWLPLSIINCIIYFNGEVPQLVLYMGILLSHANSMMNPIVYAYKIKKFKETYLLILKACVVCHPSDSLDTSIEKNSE
# Method: CHOhA3AR and CHO-K1 cells were cultured as mentioned above. Cells were grown to ∼90% confluency in 10 cm φ plates. 10 plates were used per condition per experiment. The medium was removed, and the competing ligand (PSB-11, unless noted otherwise) in medium (final concentration: 1 μM) was added. Cells were incubated for 1 h (37 °C, 5% CO2). The medium was removed, and the affinity-based probe (final concentration: 50 nM in medium) was added. The cells were incubated for 1 h (37 °C, 5% CO2) and washed with PBS to get rid of all the non-bound probes. Subsequently, the membranes were prepared and collected using the procedure as described above. Membrane aliquots were diluted to a concentration of 1 μg/μL, and 20 μL was taken per sample. PNGase (0.5 μL, 5 U) or MilliQ was added, and the samples were incubated for 1 h at rt. Next, the click mix was freshly prepared by adding together 5 parts 100 mM CuSO4 in MilliQ, 3 parts 1 M NaAsc in MilliQ, 1 part 100 mM THPTA in MilliQ, and 1 part 100 μM Cy5-N3 in DMSO. […] In-gel fluorescence was measured on a Bio-Rad Universal Hood III using Cy3 (605/50 filter) or Cy5 (695/55 filter) settings. […]
# Gel images were analyzed using Image Lab software version 6.0.1 (Bio-Rad). Quantification was done in the following manner: the area under the curve (AUC) of the bands was selected using the ‘Lane Profile’ tab and the adjusted volumes were taken. […]
# [2] = target: T1, hA3AR; assay: Confocal microscopy labeling on CHO cells, click to TAMRA-N3; format: cell-based; settings: 50 nM, 60 min, versus vehicle, PSB-11 pre-incubation and CHO-K1
# Method: CHOhA3AR and CHO-K1 cells were cultured in a 96-well plate. Upon reaching a confluency of about 90%, the medium was replaced by medium containing PSB-11 (final concentration: 1 μM) or 1% DMSO (control) and the cells were pre-incubated for 30 min (37 °C and 5% CO2). The medium was then replaced with medium containing 9 (final concentration: 50 nM) or 1% DMSO (vehicle), and the cells were incubated for 60 min (37 °C and 5% CO2). The cells were washed with PBS to remove unbound probe and afterward fixed using a 4% PFA in 10% formalin solution (15 min, rt). The remaining fixative was removed by washing with PBS and subsequently with 20 mM glycine in PBS. The cells were permeabilized by incubation in 0.1% saponin in PBS (10 min, rt). Remaining saponin was removed by a PBS wash, and the cells were stored at 4 °C until further usage. At the day of imaging, PBS was removed and the cells were incubated for 1 h in freshly prepared click mix (100 μL 100 mM CuSO4 in MilliQ, 100 μL 1 M NaAsc in MilliQ, 100 μL […] in MilliQ, 9.66 mL HEPES pH 7.4, and 40 μL 1 mM TAMRA-N3 in DMSO, added in the respective order). […]
# CellProfiler (version 2.2.0) was used to create a binary image of the DAPI channel and to propagate the cytoplasmic area based on the DAPI binary. An overlay of the binary cytoplasm/TAMRA channel was generated to quantify per segmented pixel the TAMRA intensity. […]
structure (smiles),measurement,setting,value
"C#CCOc1ccn2c(c1)nc1c2c(=O)n(CCC)c(=O)n1CCCNC(=O)c1ccc(S(=O)(=O)F)cc1 [compound 9, 4-((3-(2,4-Dioxo-8-(prop-2-yn-1-yloxy)-3-propyl-3,4-dihydropyrido[2,1-f]purin-1(2H)-yl)propyl)carbamoyl)benzenesulfonyl fluoride]",labeling of hA3AR on live CHO cells (SDS-PAGE),[1],binds and labels the hA3AR on live cells
same,integrated TAMRA fluorescence intensity,[2],significant increase in intensity
